Laboratory results published in US20210100832A1, “INJECTABLE COMPOSITION FOR THE TREATMENT OF MUSCULOSKELETAL DISORDERS AND METHODS OF USE THEREOF” (Patchor Ltd., priority 2019, published 2021).

Columns and labels:
[1] = test system: wistar rats with knee osteoarthritis (ACLT with MMx); test: Von Frey filament mechanical nociceptive threshold test in rat knee OA; format: in vivo
Procedure: As described in Example 3, OA was induced on one leg of wistar rats while the contralateral knee served as self-control. Thereafter, 14 rats were divided into two experimental groups. 7 were treated by injection of HA to the knee, as a positive control, and 7 were injected with GR. Injection volume was 150 microliters.
The experimental outcome was assessed using the Von Frey filament method for detection of mechanical nociceptive threshold test.

galectin-3 = galectin-3 (Homo sapiens, UniProt P17931); conditions: reference [8]; cited from earlier work
[2] = test system: wistar rats with knee osteoarthritis (ACLT with MMx); test: Weight bearing (incapacitance tester) in rat knee OA induced by ACLT with medial meniscectomy; format: in vivo; conditions: 150 microliters into the knee; 20 days post treatment (day 34); *p=0.0012, **p=0.0458; FIG. 2
Procedure: Induction of knee osteoarthritis was performed by an anterior cruciate ligament transaction (ACLT) with medial meniscectomy (MMx) on one leg of wistar rats while the contralateral knee served as self-control. After the procedure the animals were divided into three experimental groups of 7 animals per group. Control group was treated by injection of 150 microliters of 1% HA into the knee. Experimental groups were treated by injection of 150 microliters of either GR or GR-HA.
Formulation for dosing of control group was taken from commercial HA-1% viscosupplementation injection (Arthrease 1% sodium hyaluronate Lot R10008G, produced by Bio-Technology General). GR+HA was prepared by Patchor's standard procedures, as described in International Patent Publication No. WO 2009/150651 A1, of mixing HA with GM or with GR. All injections volume was 150 microliters. The positive control HA group was treated immediately post surgery and again at day 14 post surgery, and the HA−CM−GM was treated only once at day 14 post surgery. The experimental outcome was assessed by measuring weight bearing on the OA leg using an incapacitance tester.

Sequence of galectin-3 (P17931 whole entry, species assumed): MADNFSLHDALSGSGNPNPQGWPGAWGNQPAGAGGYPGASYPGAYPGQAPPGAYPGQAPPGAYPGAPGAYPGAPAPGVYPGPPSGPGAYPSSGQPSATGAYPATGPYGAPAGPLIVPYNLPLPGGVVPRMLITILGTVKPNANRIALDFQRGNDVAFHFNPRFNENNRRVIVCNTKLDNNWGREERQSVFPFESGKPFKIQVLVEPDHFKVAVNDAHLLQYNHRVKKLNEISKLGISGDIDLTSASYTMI

Substance | pain response compared to control HA (Von Frey) ([1]; 150 microliters into OA knee, FIG. 3) | nociceptive threshold of OA leg versus control HA ([1]; 1 day post treatment, p=0.02) | nociceptive threshold of OA leg versus control HA ([1]; 19 days post treatment, p=0.007) | nociceptive reaction in the healthy legs, GR versus HA group ([1]; healthy contralateral legs, data not shown) | inhibition of galectin-3 (galectin-3) | weight bearing ability on the operated OA leg compared to HA group [2]
Galactoarabino-Rhamnogalacturonan [GR] | significantly reduced pain response | significant reduction in nociceptive threshold | significant reduction in nociceptive threshold | No difference in nociceptive reaction | potent inhibitors of galectin-3 | significant increase in weight bearing ability
Galactomannan [GM] | – | – | – | – | potent inhibitors of galectin-3 | –
